Measurements taken from the supplement of paper PMC13380429.

How the values were obtained:
Settings in all cases: 72 h
[1] = system: Caco-2; test: cell viability relative to DMSO; higher = less toxic
[2] = system: HepG2; test: as above
[3] = system: Calu-3; test: as above
[4] = system: U2OS; test: as above
[5] = system: Vero E6; test: as above
[6] = system: Caco-2; test: relative viability EC50 (midpoint between 100% and the lowest measured viability); higher = less toxic
[7] = system: HepG2; test: as above
[8] = system: Calu-3; test: as above
[9] = system: U2OS; test: as above
[10] = system: Vero E6; test: as above
[11] = system: Caco-2; test: drug sensitivity score (DSS) for viability; higher = more toxic; extreme values may be limits of the assay
[12] = system: HepG2; test: as above
[13] = system: Calu-3; test: as above
[14] = system: U2OS; test: as above
[15] = system: Vero E6; test: as above

Structure (SMILES) | cell viability ([1]; 1 nM) [%] | cell viability ([1]; 10 nM) [%] | cell viability ([1]; 100 nM) [%] | cell viability ([1]; 1000 nM) [%] | cell viability ([1]; 10000 nM) [%] | cell viability ([2]; 1 nM) [%] | cell viability ([2]; 10 nM) [%] | cell viability ([2]; 100 nM) [%] | cell viability ([2]; 1000 nM) [%] | cell viability ([2]; 10000 nM) [%] | cell viability ([3]; 1 nM) [%] | cell viability ([3]; 10 nM) [%] | cell viability ([3]; 100 nM) [%] | cell viability ([3]; 1000 nM) [%] | cell viability ([3]; 10000 nM) [%] | cell viability ([4]; 1 nM) [%] | cell viability ([4]; 10 nM) [%] | cell viability ([4]; 100 nM) [%] | cell viability ([4]; 1000 nM) [%] | cell viability ([4]; 10000 nM) [%] | cell viability ([5]; 1 nM) [%] | cell viability ([5]; 10 nM) [%] | cell viability ([5]; 100 nM) [%] | cell viability ([5]; 1000 nM) [%] | cell viability ([5]; 10000 nM) [%] | relative viability EC50 [6] [µM] | relative viability EC50 [7] [µM] | relative viability EC50 [8] [µM] | relative viability EC50 [9] [µM] | relative viability EC50 [10] [µM] | drug sensitivity score [11] | drug sensitivity score [12] | drug sensitivity score [13] | drug sensitivity score [14] | drug sensitivity score [15]
O=C(O)Cn1nnc(-c2cc(N3CCC(Oc4cc(F)ccc4Br)CC3)no2)n1 [MK-8245] | 101 | 106 | 99.5 | 102 | 94.8 | 109 | 95.8 | 88.3 | 88.8 | 76.1 | 102 | 108 | 97.7 | 90.8 | 96.5 | 103 | 102 | 96.2 | 101 | 98.6 | 98.3 | 94.8 | 98.8 | 92.2 | 86.3 | > 10 | > 10 | > 10 | > 10 | > 10 | 0 | 2.2 | 0 | 0 | 0.1
CC(C)(C)NC[C@H](O)COc1nsnc1N1CCOCC1 [timolol] | 98.1 | 102 | 97 | 96.9 | 113 | 94.9 | 90 | 97.1 | 96.5 | 94.5 | 99.8 | 94.5 | 101 | 100 | 98.1 | 96.6 | 102 | 94.4 | 95.3 | 96.9 | 94.5 | 96.9 | 106 | 99.3 | 104 | > 10 | > 10 | > 10 | > 10 | > 10 | 0 | 0 | 0 | 0 | 0
O=C(O)/C=C/c1ccc(Cn2ccnc2)cc1 [ozagrel] | 92.4 | 101 | 96.7 | 98.6 | 94.9 | 95 | 91.9 | 101 | 95.7 | 100 | 98 | 100 | 99.7 | 106 | 92.3 | 97.8 | 100 | 95.1 | 99.7 | 93.2 | 97.5 | 103 | 95.2 | 101 | 101 | > 10 | > 10 | > 10 | > 10 | > 10 | 0 | 0 | 0 | 0 | 0
CCCOCCn1c(=O)c(N2CCN(CCO)CC2)nc2cnc(-c3ccc(OC)nc3)cc21 | 102 | 92.3 | 94.4 | 86.8 | 93.6 | 109 | 105 | 98.8 | 104 | 87.1 | 99.5 | 88.8 | 98.9 | 94.2 | 104 | 95.5 | 97.4 | 103 | 95.5 | 99.8 | 109 | 107 | 100 | 107 | 92.8 | > 10 | > 10 | > 10 | > 10 | > 10 | 0.1 | 0 | 0 | 0 | 0
O=C(O)c1ccc(S(=O)(=O)N(Cl)Cl)cc1 [halazone] | 112 | 93.5 | 84.2 | 90.1 | 90.8 | 97.1 | 94.1 | 110 | 107 | 100 | 106 | 99.6 | 95.4 | 94.7 | 107 | 101 | 95.6 | 98.7 | 95.6 | 102 | 107 | 108 | 106 | 97 | 96.7 | > 10 | > 10 | > 10 | > 10 | > 10 | 3.5 | 0 | 0 | 0 | 0
Cc1cccc(Nc2ccccc2C(=O)O)c1C [mefenamic-acid] | 97.5 | 101 | 97.1 | 96.4 | 99.3 | 101 | 94.4 | 100 | 97.4 | 91.4 | 89.9 | 96.4 | 97.7 | 98.9 | 97.6 | 106 | 97 | 101 | 97.1 | 101 | 106 | 108 | 100 | 104 | 92 | > 10 | > 10 | > 10 | > 10 | > 10 | 0 | 0 | 0 | 0 | 0
O=C(O)c1cccnc1C(=O)O [quinolinic-acid] | 103 | 110 | 96.8 | 103 | 90.3 | 105 | 99.5 | 97.6 | 102 | 97.8 | 91.5 | 105 | 97.1 | 100 | 101 | 98.2 | 103 | 98.6 | 102 | 97.7 | 108 | 97.4 | 108 | 99.2 | 102 | > 10 | > 10 | > 10 | > 10 | > 10 | 0 | 0 | 0 | 0 | 0
CCOP(=S)(OCC)Oc1nc(Cl)c(Cl)cc1Cl [chlorpyrifos] | 100 | 102 | 97.5 | 103 | 107 | 93.3 | 100 | 90.3 | 96.3 | 93.7 | 89.7 | 93.6 | 90.1 | 97 | 96.2 | 92.3 | 102 | 94.9 | 94.8 | 99.4 | 102 | 90.2 | 109 | 106 | 94.2 | > 10 | > 10 | > 10 | > 10 | > 10 | 0 | 0 | 0 | 0 | 0
O=C1OC(OC(=O)c2cccnc2Nc2cccc(C(F)(F)F)c2)c2ccccc21 (stereo not given) [talniflumate] | 95.4 | 96.9 | 99.5 | 102 | 104 | 96.3 | 89.6 | 104 | 96.7 | 104 | 90.9 | 100 | 95 | 99.1 | 101 | 97.1 | 101 | 98.9 | 102 | 103 | 99 | 97.6 | 96.8 | 91 | 95.3 | > 10 | > 10 | > 10 | > 10 | > 10 | 0 | 0 | 0 | 0 | 0
Clc1ccc(C(c2ccc(Cl)cc2)C(Cl)(Cl)Cl)cc1 [4,4'-DDT] | 99.1 | 102 | 105 | 95.2 | 97.8 | 98.5 | 104 | 97.5 | 95.8 | 98.2 | 99.1 | 110 | 93 | 105 | 95.6 | 103 | 101 | 100 | 97.3 | 106 | 103 | 105 | 105 | 102 | 99.9 | > 10 | > 10 | > 10 | > 10 | > 10 | 0 | 0 | 0 | 0 | 0
CC(=O)O[C@H]1C[C@@H]2CC[C@@H]3[C@H](CC[C@@]4(C)[C@H]3C[C@H](N3CC[N+](C)(C)CC3)[C@@H]4OC(C)=O)[C@@]2(C)C[C@@H]1N1CC[N+](C)(C)CC1 [pipecuronium] | 93.7 | 103 | 91.2 | 96.7 | 97 | 97.8 | 94.2 | 97.4 | 96.8 | 92.3 | 87.8 | 102 | 90.2 | 111 | 96.7 | 101 | 104 | 97.7 | 105 | 96.9 | 100 | 94.7 | 92.5 | 95.5 | 99.2 | > 10 | > 10 | > 10 | > 10 | > 10 | 0 | 0 | 0 | 0 | 0
[O-][n+]1cccc(CO)c1 [mepiroxol] | 97.3 | 95.1 | 94.3 | 104 | 103 | 90.9 | 118 | 104 | 96.3 | 97 | 103 | 112 | 99.4 | 109 | 104 | 100 | 99.2 | 104 | 99.2 | 99.2 | 92.1 | 97.9 | 89.3 | 98.9 | 108 | > 10 | > 10 | > 10 | > 10 | > 10 | 0 | 0 | 0 | 0 | 0
Fc1ccccc1-c1nc2ccn(Cc3ccc(-c4ccc(C(F)(F)F)cc4C(F)(F)F)nn3)cc-2n1 [tegobuvir] | 101 | 97.8 | 95 | 99.2 | 97.1 | 103 | 97.3 | 103 | 87.6 | 81.6 | 98.2 | 93.9 | 104 | 90.3 | 104 | 101 | 102 | 97.2 | 102 | 100 | 103 | 101 | 100 | 96.1 | 98.9 | > 10 | > 10 | > 10 | > 10 | > 10 | 0 | 1.6 | 0 | 0 | 0
OC(c1ccccc1)(c1ccccc1)C12CC[N+](CCOCc3ccccc3)(CC1)CC2 [umeclidinium] | 105 | 97.1 | 94.1 | 104 | 97.8 | 96.6 | 99.5 | 101 | 97.1 | 106 | 95.1 | 102 | 107 | 101 | 92.8 | 95.8 | 99.2 | 98.7 | 99 | 99.9 | 97 | 96.1 | 92.9 | 96.2 | 101 | > 10 | > 10 | > 10 | > 10 | > 10 | 0 | 0 | 0 | 0 | 0
